Data: the METLIN SMRT retention time set (Domingo-Almenara et al. 2019)

Assay: gradient 5% acetonitrile 3 min, to 50% in 2 min, to 85% in 15 min, held 3 min, 100 µL/min
Settings: column: Zorbax Extend-C18 2.1 x 50 mm; eluents: water / acetonitrile, 0.1% formic acid
Method in brief: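 In both positive and negative ionization mode, a quadrupole time-of-flight mass spectrometer coupled to HPLC analyzed pure standards run in mixtures of ~100 molecules. The Zorbax Extend-C18 column (2.1 × 50 mm, 1.8 μm) was operated at 100 μL/min with water and acetonitrile, each containing 0.1% formic acid. The dead volume was 40 μL and the dwell volume 900 μL. Retention time came from adduct peaks that were computationally picked and individually inspected by hand.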

| SMILES | RP-LC retention time |
| --- | --- |
| Cc1cc(Cl)ccc1OCc1nc(-c2cccc(-c3ccn[nH]3)c2)no1 | 1090 s |
| CCOc1ccc(C2Cn3nnc(-c4nc(-c5ccccn5)no4)c3CO2)cc1 (stereo not drawn) | 921 s |
| CCC(C)NS(=O)(=O)c1cccc(-c2nc(-c3ccccc3)no2)c1 (stereo not drawn) | 786 s |
| Cc1ccc(Cn2c(=O)c(N3CCN(C(=O)NCC4CCCO4)CC3)nc3cccnc32)cc1 (stereo not drawn) | 935 s |
| CC(C)n1cnnc1CC1CCN(C(=O)C2CCN(S(=O)(=O)N3CCOCC3)CC2)CC1 | 614 s |
| CCOc1ccc(Nc2nc(-c3c(C)nc4ccccn34)cs2)cc1 | 722 s |
| O=S(=O)(c1ccc2c(c1)OCCO2)N1CCC[C@H]1c1nc(-c2ccc(F)cc2)n[nH]1 | 799 s |
| CCc1nn2c(ncc3c(=O)n(-c4nccs4)ccc32)c1-c1ccc(F)cc1 | 1320 s |
| COc1ccc2oc(-c3csc(NC(=O)c4ccc([N+](=O)[O-])s4)n3)cc2c1 | 1110 s |
| O=S(=O)(Cc1ccccc1)N1CC(n2cc(COc3ccc(F)cc3)nn2)C1 | 899 s |
| CCC(CC)C(=O)N1CCN(c2nc3cccnc3n(CC)c2=O)CC1 | 942 s |
| CCOC(=O)c1csc(NC(=O)c2sc3ccccc3c2Cl)n1 | 999 s |
| COc1ccccc1N1CCN(C(=O)C2CCN(c3nc(NC(C)=O)ns3)CC2)CC1 | 641 s |
| Clc1ccc(-c2ccc(CNCc3ccccn3)o2)c(Cl)c1 | 734 s |
| O=C(Nc1cnn(-c2ncc(N3CCCCC3)cn2)c1)Nc1ccccc1C(F)(F)F | 891 s |
| COc1ccc(S(=O)(=O)N2CCC(OCCOc3ccccc3)CC2)cc1 | 1070 s |
| COc1ccc(CNC(=O)CN2C(=O)CC(c3cccs3)=Nc3ccccc32)cc1 | 863 s |
| Cc1ccc(CNC(=O)Cn2cccc2-c2nnc(-c3ccccc3)o2)cc1 | 940 s |
| CCN(C(=O)C(=O)c1c[nH]c2ccccc12)c1cccc(Cl)c1 | 882 s |
| Cc1ccccc1Cn1nc2ccc(S(=O)(=O)N3CCOCC3)cn2c1=O | 818 s |
| Cc1ccc(-c2noc(C3CCCN3S(=O)(=O)c3ccc(Cl)cc3C)n2)cc1 (stereo not drawn) | 1320 s |
| CCN1CCN(C2CCN(C(=O)c3cccc(Br)c3)CC2)C1=O | 720 s |

| SMILES | RP-LC retention time |
| --- | --- |
| Cc1[nH]c(C(=O)N2CCN(c3cccc(Cl)c3)CC2)c(C)c1S(=O)(=O)N1CCOCC1 | 883 s |
| CCN1CCN(C(=O)C2CCN(c3nc4cccnc4s3)CC2)CC1 | 570 s |
| COc1ccc(NC(=O)N(C)CCc2noc(COc3ccc(F)cc3)n2)cc1 | 692 s |
| CCN1CCN(c2c(S(=O)(=O)c3ccccc3)cnc3cc(OC)c(OC)cc23)CC1 | 623 s |
| COc1ccc(CNC(=O)C2(C)CCN(C(=O)Nc3cc(OC)c(OC)c(OC)c3)CC2)cc1 | 733 s |
| COc1cccc(CNC(=O)N2CCCCC2c2nncn2C)c1 (stereo not drawn) | 625 s |
| O=C(c1cnccn1)N1CCC(N2C(=O)C(O)C23CCCCC3)CC1 (stereo not drawn) | 590 s |
| Cc1ccc2c(CN3CCN(c4ccccn4)CC3)cc(=O)oc2c1 | 634 s |
| CC1CCN(C(=O)C2CCN(c3nc4ccc(-c5cccnc5)nc4s3)CC2)CC1 | 630 s |
| Cc1c(F)cccc1NC(=O)N1C[C@@H](F)C[C@H]1C(=O)N1CCOCC1 | 653 s |
| O=C(CC1CCCC1)N1CCC(c2noc(-c3ccncc3)n2)C1 (stereo not drawn) | 786 s |
| CCc1ccccc1S(=O)(=O)Nc1ccc2c(c1)CCC(=O)N2CCOC | 816 s |
| CCN(Cc1ccccc1)C(=O)CSc1cc(N2CCN(c3ccc(OC)cc3)CC2)ncn1 | 964 s |
| COC(=O)c1ccccc1NC(=O)Cn1c(N2CCCC2)nc(C)cc1=O | 612 s |
| CCCNC(=O)c1cn(-c2cc(-c3nc(CC)no3)ccn2)cn1 | 780 s |
| O=C(Cn1cccc1-c1nnc(C2CCC2)o1)Nc1cccc(Br)c1 | 974 s |
| Cc1ccc(NC(=O)C2=C(Nc3ccc4c(c3)n(C)c(=O)n4C)c3ccccc3S2(=O)=O)cc1 | 902 s |
| Cc1nn(-c2ccc(-c3ccccc3)nn2)c(C)c1S(=O)(=O)NCc1ccc(F)cc1 | 988 s |
| CCc1cc(Br)ccc1NC(=O)C1CCCN(c2nc3ccccc3nc2OC)C1 (stereo not drawn) | 1300 s |
| O=C(CCn1cnc2cc(-c3noc(/C=C/c4cccs4)n3)ccc21)N1CCCC1 | 774 s |
| CCOc1ccc(NC(=O)c2oc3cc(C)ccc3c2C)c2cccnc12 | 753 s |
| O=C(Cn1c(=O)cc(-c2nc(C3CC3)no2)c2ccccc21)Nc1cccc(F)c1 | 952 s |

| SMILES | RP-LC retention time |
| --- | --- |
| O=C(Cn1nc2c(cc1=O)CCCC2)NCCc1nc(-c2ccccc2)cs1 | 784 s |
| O=C(NCCc1ccccc1)Nc1cnn(-c2ncc(N3CCCCC3)cn2)c1 | 799 s |
| CCOc1ccc(NC(=O)Cn2nc3c4sc(N(C)C)nc4ncn3c2=O)cc1 | 692 s |
| COc1cccc(NC(=O)N(C)CCc2noc(COc3ccccc3F)n2)c1 | 692 s |
| CN1CC(=O)N(CC(=O)Nc2ccc(Cl)c(C(F)(F)F)c2)c2ccccc2C1=O | 826 s |
| CC1=C(c2ccc(Cl)cc2)S(=O)(=O)N=C1N1CCCN(C(=O)C(C)C)CC1 | 822 s |
| Cc1cccc(-c2noc(-c3ccc(=O)n(Cc4cccnc4)c3)n2)c1 | 747 s |
| O=[N+]([O-])c1ccc(NN=C(c2ccccc2)c2ccccc2)nc1 | 1300 s |
| COC(=O)c1ccc(NC(=O)Cc2csc3nc(-c4ccc(C)c(C)c4)cn23)cc1 | 849 s |
| O=C(NCc1cccs1)c1ccnc(N2CCNC(c3ccccc3)C2)c1 (stereo not drawn) | 631 s |
| C=CCN1CC[C@]23CCCCC2[C@H]1Cc1ccc(O)cc13 (stereo partly drawn) | 691 s |
| CCNC(=O)C1CCN(c2cc(SCC(=O)Nc3ccc(C(=O)OCC)cc3)ncn2)CC1 | 725 s |
| CN(C)CCNC(=O)c1ccc(CS(=O)(=O)c2c(Cl)cccc2Cl)o1 | 595 s |
| O=C(NC1CCN(c2cc(-c3ccccc3)[nH]n2)C1)c1ccsc1 (stereo not drawn) | 660 s |
| Cn1nc(C(=O)N2CCCC(C(=O)N3CCCC3)C2)c2c1CCN(C(=O)c1c(F)cccc1F)C2 (stereo not drawn) | 686 s |
| CC(Cc1ccco1)NC(=O)c1cc2n(n1)CCCN(Cc1ccccc1)C2=O (stereo not drawn) | 828 s |
| CCOC(=O)c1noc2nc(C)nc(NCC3CCN(Cc4cccc(Cl)c4)CC3)c12 | 696 s |
| Cc1noc(-c2ccc(OC3CN(C(=O)NCc4ccc(F)cc4)C3)cc2)n1 | 831 s |
| CN1CCN(C(=O)c2ccc(S(=O)(=O)c3ccccc3)s2)CC1 | 605 s |
| Fc1cccc(-c2nnc(Cc3nc(-c4ccc5c(c4)OCO5)no3)o2)c1 | 958 s |
| Cc1cc(N2CCOCC2)nc(N2CCN(S(=O)(=O)c3cc(C)c(C)cc3C)CC2)n1 | 733 s |
| COCCCNc1nc(-c2ccc(C(C)(C)C)cc2)nc2ccccc12 | 843 s |

| SMILES | RP-LC retention time |
| --- | --- |
| Cc1ccc(NC(=O)NCCn2c(-c3ccncc3)nc3cccnc32)c(C)c1 | 641 s |
| O=C(NC1CC1)c1ccc(-c2nc3cccnc3n(C3CCCC3)c2=O)cc1 | 970 s |
| COc1ccc(OC)c(CCNC(=O)c2c(N3CCCC3=O)c3cc(F)ccc3n2C)c1 | 919 s |
| CC1CSc2ccc(S(=O)(=O)N3CCN(c4ccccn4)CC3)cc2NC1=O (stereo not drawn) | 647 s |
| CCC(C)NC(=O)c1ccc(-c2csc(C)n2)cc1 (stereo not drawn) | 799 s |
| CCOc1ccc(S(=O)(=O)N2CCCC(C(=O)NCCO)C2)cc1C (stereo not drawn) | 714 s |
| CC(C)(C)c1cc(NC(=O)COc2ccccc2F)n(CCO)n1 | 759 s |
| CCS(=O)(=O)N1CCc2ccc(NC(=O)c3ccco3)cc2C1 | 682 s |
| CCN1C(=O)COc2ccc(-c3noc(COc4ccc(OC)cc4)n3)cc21 | 1000 s |
| Cc1cc(Br)ccc1NS(=O)(=O)c1cc(-c2nc(C)c(C)s2)cs1 | 1110 s |
| Cc1ccc(-n2nc(C)c3sc(N4CCCC(C(=O)Nc5ccccc5C)C4)nc32)cc1 (stereo not drawn) | 1220 s |
| COc1ccc(NC(=O)N2CCN(c3nc4ccccc4nc3C(F)(F)F)CC2)cc1 | 993 s |
| Cc1noc2ncnc(N3CCCC(C(=O)N4CCN(C5CCCCC5)CC4)C3)c12 (stereo not drawn) | 594 s |
| Cc1ccc(-n2nc3c(=O)n(CCCC(=O)N4CCC(C(N)=O)CC4)nc(C)c3c2C)cc1 | 648 s |
| CCn1c(C(=O)N2CCN(c3ccccn3)CC2)cc2c(=O)oc3ccccc3c21 | 637 s |
| CCNC(=O)c1nc2cc(C)c(C)cc2n(C)c1=O | 698 s |
| COCCCNC(=O)Cn1c(=O)c(S(=O)(=O)c2ccccc2)cc2cc(C)ccc21 | 743 s |
| Cc1noc([C@@H]2CN(C(=O)CC(C)(C)C)C[C@H]2CO)n1 | 644 s |
| COc1ccccc1CNC1CCN(c2ccc(C(=O)NC3CC3)cn2)C1 (stereo not drawn) | 552 s |
| CC1CCN(c2cc(-n3cnc(C(=O)N4CCN(c5ccccn5)CC4)c3)ncn2)CC1 | 675 s |
| CNC(=O)c1cn(-c2ccc(S(=O)(=O)N3CCCC3)cn2)cn1 | 622 s |
| Cc1cc(=O)n(CC(=O)Nc2ccc(F)cc2C)c(N2CCCCC2)n1 | 695 s |
